From patent US20240076406A1, “SINGLE DOMAIN ANTIBODIES TARGETING CA-IX AS WELL AS COMPOSITIONS COMPRISING SAME” (National Research Council of Canada, priority 2021, published 2024)

What was measured:
[1] = biological target: T1, purified hCA-IX ECD dimer (Homo sapiens, UniProt Q16790); test: In vitro rhCA-IX enzyme activity inhibition (4Mu-Ac hydrolysis); format: biochemical; conditions: [inhibitor] vs. normalized response - variable slope
T1 construct: in vitro enzyme activity assay using purified hCA-IX ECD dimer
Description: In vitro rhCA-IX enzyme activity inhibition. In order to examine the functional consequence of the binding of the two sdCA9-VHH antibodies to hCA-IX ECD, antibodies were tested in an in vitro enzyme activity assay using purified hCA-IX ECD dimer and 4-Methylumbelliferyl acetate (4Mu-Ac) as substrate.

[2] = system: 67NR^hCA-IX derived spheroids; test: Spheroid growth inhibition, 67NR^hCA-IX; format: cell-based, mouse; conditions: monitored for 8 days; compared with 67NR derived spheroids
Description: Spheroid growth inhibition.

[3] = system: SKRC59 and SKRC52 cell lines (low and high levels of hCA-IX); test: Cell binding assay, plate format; format: cell-based, human; conditions: cell line of Table 3 not stated
Description: Cell binding assays were performed using a plate-based format, binding was expressed as the mean fluorescent intensity per cell area. (control IgG (●), cG250 (▪), sdCA9-1-Fc (▴), and sdCA9-2-Fc (▾)). KD values were determined by plotting fluorescent intensity measured for each condition of the sdCA9-Fc antibodies using Graphpad Prism. cG250 full sized antibody (FSA) and isotype matching IgG FSA were used as bench mark and negative control, respectively.
Cell binding. […] These cell lines have been used in the literature for the screening of scFv Abs for binding to hCA-IX (Xu et al. 2010). KD values were determined to be in the low nanomolar range, the clinically used cG250 full sized antibody (FSA) was used as a bench mark. An isotype matching hIgG was used as negative control (FIG. 5).

HillSlope (best fit value) [1] | Compound | spheroid growth, different concentrations [2] | Kd ([3]; cell binding, text: low nanomolar range, read-out: KD (best-fit value, one site specific binding)) [nM] | Bmax (best-fit value, one site specific binding) ([3]; mean fluorescent intensity per cell area)
−0.3305 | NS(=O)(=O)c1ccc(NC(=O)Nc2ccc(F)cc2)cc1 [Clone U104, reference compound] | inhibited spheroid growth in a dose-dependent manner | – | –
– | cG250: clinically used anti-CA-IX full sized antibody (FSA), used as bench mark [reference compound] | – | 1.29 | 574.6
